US8686146B2, “Azaindenoisoquinoline topoisomerase I inhibitors” (Purdue Research Foundation, priority 2012, dated 2014)
Counter-ions that a name gives are not always drawn.

Assays:
SF-539 = assay: NCI screen antiproliferative activity, CNS SF-539
Method: (§1) Cells of approximately 60 different human cancer cell lines were incubated for 48 h with five 10-fold dilutions of the tested compounds starting from 100 μM and then treated with sulforhodamine B dye. The ratios of recorded optical densities relative to that of the control were plotted as a function of the common logarithm of the tested compound concentrations. […] The GI50 and the mean graph midpoint (MGM) values of the prepared indenoisoquinolines in selected cell lines are presented in Table I.
(§2) The antiproliferative activity of each compound was determined in the National Cancer Institute (NCI) screen as described above. Cells of approximately 60 different human cancer cell lines were incubated for 48 h with five 10-fold dilutions of the test compounds starting from 100 μM, and then treated with sulforhodamine B dye. The ratios of recorded optical densities relative to those of the control were plotted as a function of the common logarithm of the tested compound concentrations. […] The GI50 and the mean graph midpoint (MGM) values of the prepared (aza)indeno-isoquinolines in selected cell lines are presented in Table 2.

MCF7 = assay: NCI screen antiproliferative activity, breast MCF7
Method: as §1, §2

human recombinant Top1 = molecular target: T1, human recombinant Top1 (Homo sapiens, UniProt P11387); assay: Top1-mediated DNA cleavage assay; format: biochemical; settings: semiquantitative, relative to compounds 1 and 2
T1 construct: made in house
T1 sequence (P11387 1-765): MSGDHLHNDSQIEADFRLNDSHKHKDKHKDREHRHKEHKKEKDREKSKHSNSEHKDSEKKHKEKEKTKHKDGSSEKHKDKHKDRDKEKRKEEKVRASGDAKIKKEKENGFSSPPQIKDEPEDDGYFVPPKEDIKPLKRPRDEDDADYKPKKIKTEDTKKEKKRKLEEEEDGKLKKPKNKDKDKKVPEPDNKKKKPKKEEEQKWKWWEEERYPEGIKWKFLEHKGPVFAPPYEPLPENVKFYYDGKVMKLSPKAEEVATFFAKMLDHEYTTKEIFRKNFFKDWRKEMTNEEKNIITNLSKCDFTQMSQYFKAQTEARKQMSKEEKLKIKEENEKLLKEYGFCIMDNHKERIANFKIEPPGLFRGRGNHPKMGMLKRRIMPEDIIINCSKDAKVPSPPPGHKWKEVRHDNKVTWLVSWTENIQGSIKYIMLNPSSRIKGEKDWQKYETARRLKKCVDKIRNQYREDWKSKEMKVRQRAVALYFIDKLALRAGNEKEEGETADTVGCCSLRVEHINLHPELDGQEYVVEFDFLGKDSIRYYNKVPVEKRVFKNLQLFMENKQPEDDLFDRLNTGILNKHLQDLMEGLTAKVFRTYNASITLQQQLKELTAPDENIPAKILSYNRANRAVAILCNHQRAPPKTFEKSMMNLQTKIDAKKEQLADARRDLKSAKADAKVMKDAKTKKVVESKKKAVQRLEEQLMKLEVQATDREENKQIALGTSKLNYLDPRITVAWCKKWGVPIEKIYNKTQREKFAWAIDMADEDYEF
Method: Unincorporated [^32P]dGTP was removed using mini Quick […] columns (Roche, Indianapolis, Ind.), and the eluate containing the […] DNA substrate was collected. […] Aliquots of each reaction mixture were subjected to 20% denaturing PAGE. […] The DNA fragments were separated on a denaturing gel. […] All of the target compounds were tested for induction of DNA damage in Top1-mediated DNA cleavage assays, as described above.

OVCAR-3 = assay: NCI screen antiproliferative activity, ovarian OVCAR-3
Method: as §1, §2

UACC-62 = assay: NCI screen antiproliferative activity, melanoma UACC-62
Method: as §1, §2

DU-145 = assay: NCI screen antiproliferative activity, prostate DU-145
Method: as §1, §2

HOP-62 = assay: NCI screen antiproliferative activity, lung HOP-62
Method: as §1, §2

HCT-116 = assay: NCI screen antiproliferative activity, colon HCT-116
Method: as §1, §2

SN12C = assay: NCI screen antiproliferative activity, renal SN12C
Method: as §1, §2

[1] = test system: approximately 60 different human cancer cell lines; assay: NCI screen, mean graph midpoint over all cell lines; format: cell-based; settings: all human cancer cell lines successfully tested, 48 h
Method: as §1, §2

| SMILES | Top1 Cleavage (human recombinant Top1; Table 2) | Top1 Cleavage (human recombinant Top1; Table 1) | GI50 (SF-539) [nM] | GI50 (MCF7) [nM] | GI50 (OVCAR-3) [nM] | GI50 (UACC-62) [nM] | GI50 (DU-145) [nM] | GI50 (HOP-62) [nM] | GI50 (HCT-116) [nM] | GI50 (SN12C) [nM] | MGM (mean graph midpoint for growth inhibition) ([1]; Table 2) [µM] | MGM (mean graph midpoint for growth inhibition) ([1]; Table 1) [µM] |
| --- | --- | --- | --- | --- | --- | --- | --- | --- | --- | --- | --- | --- |
| COc1cc2c3c(n(CCCN4CCOCC4)c(=O)c2cc1OC)-c1ccncc1C3=O.O=C(O)C(F)(F)F [Compound 128, 9-Aza-5,6-dihydro-6-(3-(4-morpholino)propyl)-2,3-dimethoxy-5,11-dioxo-11H-indeno[1,2-c]isoquinoline Trifluoroacetate] | ++ |  | > 100000 | 1900 | 12000 | 85000 | 7600 | 5000 | 390 | 5900 | 9.5 |  |
| COc1cc2c3c(n(CCCN(C)C)c(=O)c2cc1OC)-c1ccncc1C3=O.O=C(O)C(F)(F)F [Compound 127, 9-Aza-5,6-dihydro-6-(3-dimethylaminopropyl)-2,3-dimethoxy-5,11-dioxo-11H-indeno[1,2-]isoquinoline Trifluoroacetate] | + (+ weak activity;) |  | 12000 | 3900 | 7400 | > 100000 | 2900 | 6500 | 620 | 8500 | 6.5 |  |
| COc1cc2c3c(n(CCCN4CCOCC4)c(=O)c2cc1OC)-c1cnccc1C3=O.O=C(O)C(F)(F)F [Compound 118, 8-Aza-5,6-dihydro-6-(3-(4-morpholino)propyl)-2,3-dimethoxy-5,11-dioxo-11H-indeno[1,2-c]isoquinoline Trifluoroacetate] | ++ |  | 40000 | 4100 | 24000 | 48000 | 24000 | 6500 | 2500 | 16000 | 16 |  |
| CN(C)CCCn1c2c(c3ccc([N+](=O)[O-])cc3c1=O)C(=O)c1cccnc1-2.Cl [Compound 20, 7-Aza-5,6-dihydro-6-(3-dimethylaminopropyl)-3-nitro-5,11-dioxo-11H-indeno[1,2-c]isoquinoline Hydrochloride] |  |  | 2690 | 360 | 2290 | 3310 | 930 | 2350 | 440 | 1000 |  | 1.86 |

Now from value to compound, other results behind:

| Top1 Cleavage (human recombinant Top1; Table 2) | Top1 Cleavage (human recombinant Top1; Table 1) | SMILES | GI50 (SF-539) [nM] | GI50 (MCF7) [nM] | GI50 (OVCAR-3) [nM] | GI50 (UACC-62) [nM] | GI50 (DU-145) [nM] | GI50 (HOP-62) [nM] | GI50 (HCT-116) [nM] | GI50 (SN12C) [nM] | MGM (mean graph midpoint for growth inhibition) ([1]; Table 2) [µM] | MGM (mean graph midpoint for growth inhibition) ([1]; Table 1) [µM] |
| --- | --- | --- | --- | --- | --- | --- | --- | --- | --- | --- | --- | --- |
| ++++ (++++ similar activity as 1 μM 1.) |  | COc1cnc2c(c1)C(=O)c1c-2n(CCCN2CCOCC2)c(=O)c2cc([N+](=O)[O-])ccc12 [Compound 66, 7-Aza-5,6-dihydro-6-(3-(4-morpholino)propyl)-9-methoxy-3-nitro-5,11-dioxo-11H-indeno[1,2-c]isoquinoline] | 35 | 20 | 110 | 40 | 40 | 51 | 50 | 43 | 0.085 |  |
| ++ | ++ | COc1cc2c3c(n(CCCN4CCOCC4)c(=O)c2cc1OC)-c1ncccc1C3=O [Compound 22, 7-Aza-5,6-d hydro-6-(3-morpholinopropyl)-2,3-dimethoxy-5,11-dioxo-11H-indeno[1,2-c]isoquinolineHydrochloride] | 290 | 52 | 370 |  | 310 | 300 | 220 | 520 | 0.30 | 0.30 |
| ++ |  | COc1cnc2c(c1)C(=O)c1c-2n(CCCN2CCOCC2)c(=O)c2ccccc12 [Compound 64, 7-Aza-5,6-dihydro-6-(3-(4-morpholino)propyl)-9-methoxy-5,11-dioxo-11H-indeno[1,2-c]isoquinoline] | 3500 | 600 | 6300 | 1700 | 3600 | 4100 | 2500 | 2600 | 3.0 |  |
| +++ |  | COc1cnc2c(c1)C(=O)c1c-2n(CCCN(C)C)c(=O)c2ccccc12 [Compound 63, 7-Aza-5,6-dihydro-6-(3-dimethylaminopropyl)-9-methoxy-5,11-dioxo-11H-indeno[1,2-c]isoquinoline] | 570 | 210 | 940 | 540 | 300 | 300 | 340 | 260 | 0.40 |  |
| +++ |  | COc1cnc2c(c1)C(=O)c1c-2n(CCCN(C)C)c(=O)c2cc(OC)c(OC)cc12.Cl [Compound 55, 7-Aza-5,6-dihydro-6-(3-dimethylaminopropyl)-2,3,9-trimethoxy-5,11-dioxo-11H-indeno[1,2-c]isoquinoline Hydrochloride] | 1100 | 130 | 2900 | 3900 | 880 | 920 | 1500 | 3600 | 1.8 |  |
| ++ |  | COc1cnc2c(c1)C(=O)c1c-2n(CCCN2CCOCC2)c(=O)c2cc(OC)c(OC)cc12.Cl [Compound 56, 7-Aza-5,6-dihydro-6-[3-(4-morpholino)propyl]-2,3,9-trimethoxy-5,11-dioxo-11H-indeno[1,2-c]isoquinoline Hydrochloride] | 270 | 100 | 310 | 220 | 340 | 240 | 330 | 340 | 0.48 |  |
